The record followed here is PMC9813914, “Structural Basis for a Cork-Up Mechanism of the Intra-Molecular Mesaconyl-CoA Transferase” (Biochemistry, 2022).

Each structure is given as a SMILES string. Some results are limits rather than exact numbers.

For this test, the target named is T1, Mct (mesaconyl-CoA transferase; mesaconyl-C1:C4-CoA CoA transferase) (Chloroflexus aurantiacus, UniProt A9WC36).
T1 construct: intertwined homodimer
T1 sequence (A9WC36 1-409): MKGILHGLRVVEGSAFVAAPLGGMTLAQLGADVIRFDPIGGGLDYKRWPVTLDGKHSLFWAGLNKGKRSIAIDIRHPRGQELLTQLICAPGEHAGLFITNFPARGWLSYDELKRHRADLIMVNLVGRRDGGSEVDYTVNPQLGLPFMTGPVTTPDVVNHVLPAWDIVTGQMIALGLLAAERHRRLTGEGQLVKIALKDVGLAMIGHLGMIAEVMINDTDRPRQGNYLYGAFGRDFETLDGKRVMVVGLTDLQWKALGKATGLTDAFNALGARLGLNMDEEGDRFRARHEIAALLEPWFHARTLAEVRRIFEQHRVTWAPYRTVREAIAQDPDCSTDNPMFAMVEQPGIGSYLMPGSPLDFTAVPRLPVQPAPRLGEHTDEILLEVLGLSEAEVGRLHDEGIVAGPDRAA
In words: HPLC-MS of succinyl-CoA formation. The following applies: alternative CoA acceptor (side activity); co-substrate 1 mM mesaconyl-C4-CoA; 200 mM HEPES/KOH pH 8.0, 55 °C, 6 μM Mct; read-out: apparent KM. In kind it is biochemical.

As to `O=C(O)CCC(=O)O` [succinate], the Km (as a rule, the concentration of substrate that gives half-maximal velocity) was above 25 mM.
